Assay [1] concerns cultured pancreatic cells.
Protocol: At least one exogenous growth factor is added to the survival media in an amount sufficient to increase the level of activated Akt in the cultured cells. Typically, the growth factors are added in a concentration range from about 10 ng/ml to about 100 ng/ml of culture media (e.g., 10, 15, 20, 30, 40, 50, 60, 70, 80, 90, 100 ng/ml of culture media). Non-limiting exemplary growth factors suitable for use with the present invention may include members of the IGF, EGF, and PDGF families.
Another assay deals with caspases 3 and 7. The experiment in a line: Apo-ONE caspase 3/7 assay on cell lysates. Particulars: FIG. 1. The assay is classed as cell-based, human. As to the method:
In some embodiments, the presence of caspases 3 and 7 and the extent of cell death is measured using the APO-ONE™ caspase assay (see, e.g., FIG. 1) according to the manufacturers instructions (Promega Inc., Madison, Wis.).
One of the hallmarks of apoptosis is caspase activation. The downstream caspases 3 and 7 have a consensus cleavage sequence DEVD (SEQ ID NO: 1). For determination of the extent of apoptosis in our cultures, we used the Apo-ONE assay system (Promega), according to the manufacturer's instructions (FIG. 1). Cells were plated on 96 well plates, and cell lysates were prepared in a buffer that supports caspase activity (Promega, Madison, Wis.) and analyzed on a fluorescent plate reader using the Apo-ONE caspase 3/7 fluorescent assay (Promega, Madison, Wis.) at an excitation wavelength was 485 run and an emission wavelength was 530 nm.

For a further assay, the system named is human pancreatic cells. The experiment in a line: Real-time quantitative RT-PCR of endocrine and progenitor marker gene expression. The assay is classed as cell-based. To be noted: additive in control media; pancreatic endocrine cultures; FIG. 7. How it is done: To determine the effects of survival media on endocrine lineage cells, we studied the gene expression of our expanded pancreatic cells by quantitative RT-PCR as shown for example in FIG. 6. Total cellular RNA was isolated from cells using Nucleospin RNA II kits (BD Biosciences, Inc.). Reverse transcription was performed using 5 μg of total RNA M-MLV reverse transcriptase (Invitrogen), 10 mM DTT, 0.5 mM dNTP (Sigma, St. Louis, Mo.), 25 ng/μl of Oligo(dt) 12-18 primer (Sigma), RNase inhibitor (Sigma) and 1× First-strand buffer (Invitrogen). The mixture was heated to 65° C. for 5 minutes. Reverse transcriptase was added and incubated at 37° C. for 60 minutes. Reactions were terminated and real-time quantitative PCR was performed according to the manufacturer's instructions using Light Cycler machines 1.0 and 2.0 (Roche) in the presence of […] of 5-fold diluted cDNA. Insulin, glucagon, Somatostatin, PDX-1, Neuro-D1, CK-19, amylase, HNF3-beta, and β-actin primer sequences were designed based on published human mRNA sequences. Data for mRNA was presented according to calculations using absolute quantification methods, or as a fold increase over the control. All expression levels of the different genes were normalized to β-actin. […]

For VEGF, in assay [1], the “works as exogenous growth factor with the invention” value is reported as “did not work”.

As to `CC(C)C(NC(=O)c1ccc2ccccc2n1)C(=O)NC(CC(=O)O)C(=O)COc1c(F)cccc1F` (stereo not shown) [OPH-109, non-O-methylated Q-VD-OPH], in the assay with caspases 3 and 7 (1 μM inhibitor, P0 adherent pancreatic cells), the “caspase activation in pancreatic cells” value is recorded as “completely reversed the caspase activation”. In addition, in the assay with caspases 3 and 7 (three independent experiments), the “concentration dependence of caspase inhibition” value was “concentration dependence of caspase inhibition”. Also, the “insulin mRNA normalized to β-actin mRNA, fold increase over control media alone” value in the assay on human pancreatic cells is 10 fold.

The record behind these values is patent publication US9745554B2, “Method of improving cell proliferation of pancreatic progenitor cells in a pancreatic cell culture” (ReNeuron, Inc., priority 2006, dated 2017).
